Assay results reported in ChEMBL document CHEMBL3045179, “Mode of Action and QSAR Studies of Nitrification Inhibitors” (J Pestic Sci, 1997).

Experiments:
Nitrosomonas europaea [1] = assay: Inhibition of Nitrosomonas europaea ATCC 25978-mediated nitrification activity assessed as nitrite nitrogen formation after 7 to 10 days by Griess-Ilosvay method; format: functional, organism-based; settings: read-out: pI50 (converted)
[2] = Octanol-water partition coefficient, log P of the compound; format: physicochemical
Nitrosomonas sp. TK794 [3] = assay: Inhibition of Nitrosomonas sp. TK794-mediated nitrification activity assessed as nitrite nitrogen formation at 0.5 mg/kg after 7 to 10 days by Griess-Ilosvay method relative to control; format: functional
Nitrosomonas europaea [4] = assay: Inhibition of Nitrosomonas europaea ATCC 25978-mediated nitrification activity assessed as nitrite nitrogen formation at 0.1 mg/kg after 7 to 10 days by Griess-Ilosvay method relative to control; format: functional; settings: values are per cent of control
Nitrosomonas europaea [5] = assay: Inhibition of Nitrosomonas europaea ATCC 25978-mediated nitrification activity assessed as nitrite nitrogen formation at 1 mg/kg after 7 to 10 days by Griess-Ilosvay method relative to control; format: functional; settings: values are per cent of control
Nitrosomonas sp. TK794 [6] = assay: Inhibition of Nitrosomonas sp. TK794-mediated nitrification activity assessed as nitrite nitrogen formation at 5 mg/kg after 7 to 10 days by Griess-Ilosvay method relative to control; format: functional
Nitrosomonas europaea [7] = assay: Inhibition of Nitrosomonas europaea ATCC 25978-mediated nitrification activity assessed as nitrite nitrogen formation at 0.5 mg/kg after 7 to 10 days by Griess-Ilosvay method relative to control; format: functional; settings: values are per cent of control
Nitrosomonas sp. TK794 [8] = assay: Inhibition of Nitrosomonas sp. TK794-mediated nitrification activity assessed as nitrite nitrogen formation at 50 mg/kg after 7 to 10 days by Griess-Ilosvay method relative to control; format: functional
Nitrosomonas europaea [9] = assay: Inhibition of Nitrosomonas europaea ATCC 25978-mediated nitrification activity assessed as nitrite nitrogen formation at 10 mg/kg after 7 to 10 days by Griess-Ilosvay method relative to control; format: functional
Nitrosomonas sp. TK794 [10] = assay: Inhibition of Nitrosomonas sp. TK794-mediated nitrification activity assessed as nitrite nitrogen formation at 500 mg/kg after 7 to 10 days by Griess-Ilosvay method relative to control; format: functional
Nitrosomonas europaea [11] = assay: Inhibition of Nitrosomonas europaea ATCC 25978-mediated nitrification activity assessed as nitrite nitrogen formation at 400 mg/kg after 7 to 10 days by Griess-Ilosvay method relative to control; format: functional
Nitrosomonas sp. TK794 [12] = assay: Inhibition of Nitrosomonas sp. TK794-mediated nitrification activity assessed as nitrite nitrogen formation at 1 mg/kg after 7 to 10 days by Griess-Ilosvay method relative to control; format: functional

Row | SMILES | IC50 (Nitrosomonas europaea [1]) [nM] | logP ([2]; read-out: logP) | residual activity at 0.1 mg/kg (Nitrosomonas europaea [4]) [%] | other results
1 | COc1nc(N)nc(C(Cl)(Cl)Cl)n1 | 490 | 2.36 | 36.1 | inhibition in vivo at 0.5 mg/kg (Nitrosomonas sp. TK794 [3]): 29.5%
2 | Nc1nc(-c2ccccc2)nc(C(Cl)(Cl)Cl)n1 | 363 | 4.02 | – | residual activity at 1 mg/kg (Nitrosomonas europaea [5]): 20.8%; inhibition in vivo at 5 mg/kg (Nitrosomonas sp. TK794 [6]): 49.7%
3 | CSc1nc(N)nc(C(Cl)(Cl)Cl)n1 | 1260 | 2.96 | – | inhibition in vivo at 5 mg/kg (Nitrosomonas sp. TK794 [6]): 27%; residual activity at 0.5 mg/kg (Nitrosomonas europaea [7]): 65.5%
4 | Cc1nc(N)nc(C(Cl)(Cl)Cl)n1 | – | 2.82 | – | inhibition in vivo at 5 mg/kg (Nitrosomonas sp. TK794 [6]): 42.1%
5 | CCCCCCCCCCCCCCCCNc1nc(C)nc(C(Cl)(Cl)Cl)n1 | – | – | – | inhibition in vivo at 400 mg/kg (Nitrosomonas europaea [11]): 45.2%; inhibition in vivo at 500 mg/kg (Nitrosomonas sp. TK794 [10]): 81%; logP [2]: 11.4
6 | Cc1nc(N(C)C)nc(C(Cl)(Cl)Cl)n1 | – | 4.07 | – | inhibition in vivo at 1 mg/kg (Nitrosomonas sp. TK794 [12]): 58.7%
7 | Cc1nc(Nc2ccccc2)nc(C(Cl)(Cl)Cl)n1 | 501 | 4.7 | 66 | inhibition in vivo at 1 mg/kg (Nitrosomonas sp. TK794 [12]): 39%
8 | COc1nc(C)nc(C(Cl)(Cl)Cl)n1 | – | 3.98 | – | inhibition in vivo at 0.5 mg/kg (Nitrosomonas sp. TK794 [3]): 32%
9 | Cc1nc(Oc2ccc(Cl)cc2)nc(C(Cl)(Cl)Cl)n1 | 741 | 5.94 | – | residual activity at 1 mg/kg (Nitrosomonas europaea [5]): 36.1%; inhibition in vivo at 1 mg/kg (Nitrosomonas sp. TK794 [12]): 47%
10 | CCCCc1nc(N)nc(C(Cl)(Cl)Cl)n1 | 1200 | 4.4 | – | residual activity at 1 mg/kg (Nitrosomonas europaea [5]): 29%; inhibition in vivo at 1 mg/kg (Nitrosomonas sp. TK794 [12]): 39.7%
11 | CNc1nc(-c2ccccc2)nc(C(Cl)(Cl)Cl)n1 | 372 | 4.7 | 53.2 | inhibition in vivo at 0.5 mg/kg (Nitrosomonas sp. TK794 [3]): 57.1%
12 | CCNc1nc(-c2ccccc2)nc(C(Cl)(Cl)Cl)n1 | 380 | 5.23 | 45.3 | inhibition in vivo at 0.5 mg/kg (Nitrosomonas sp. TK794 [3]): 47.8%
13 | CCCNc1nc(-c2ccccc2)nc(C(Cl)(Cl)Cl)n1 | 389 | 5.75 | 50.1 | inhibition in vivo at 0.5 mg/kg (Nitrosomonas sp. TK794 [3]): 58.1%
14 | CN(C)c1nc(-c2ccccc2)nc(C(Cl)(Cl)Cl)n1 | 1700 | 5.4 | – | residual activity at 1 mg/kg (Nitrosomonas europaea [5]): 40.1%; inhibition in vivo at 5 mg/kg (Nitrosomonas sp. TK794 [6]): 43%
15 | COc1nc(-c2ccccc2)nc(C(Cl)(Cl)Cl)n1 | 229 | 5.17 | 31.4 | inhibition in vivo at 1 mg/kg (Nitrosomonas sp. TK794 [12]): 39%

Further lines, with some results ahead:

Row | IC50 (Nitrosomonas europaea [1]) [nM] | logP ([2]; read-out: logP) | SMILES | residual activity at 0.1 mg/kg (Nitrosomonas europaea [4]) [%] | other results
16 | 589 | 5.65 | CCCCN(C)c1nc(C)nc(C(Cl)(Cl)Cl)n1 | 59.5 | –
17 | 2000 | 4.56 | CCCNc1nc(C)nc(C(Cl)(Cl)Cl)n1 | – | residual activity at 1 mg/kg (Nitrosomonas europaea [5]): 42.9%
18 | 1510 | 5.08 | CCCCNc1nc(C)nc(C(Cl)(Cl)Cl)n1 | 79.5 | –
19 | 501 | 5.61 | CCCCCNc1nc(C)nc(C(Cl)(Cl)Cl)n1 | 61.5 | –
20 | 417 | 6.13 | CCCCCCNc1nc(C)nc(C(Cl)(Cl)Cl)n1 | 54.5 | –
21 | 380 | 6.66 | CCCCCCCNc1nc(C)nc(C(Cl)(Cl)Cl)n1 | 44.9 | –
22 | 9120 | 8.27 | CCCCCCCCCCNc1nc(C)nc(C(Cl)(Cl)Cl)n1 | – | inhibition in vivo at 50 mg/kg (Nitrosomonas sp. TK794 [8]): 50%; inhibition in vivo at 10 mg/kg (Nitrosomonas europaea [9]): 56.2%
23 | 45700 | – | CCCCCCCCCCCCNc1nc(C)nc(C(Cl)(Cl)Cl)n1 | – | inhibition in vivo at 500 mg/kg (Nitrosomonas sp. TK794 [10]): 33.2%; logP [2]: 9.3; inhibition in vivo at 10 mg/kg (Nitrosomonas europaea [9]): 69.4%
24 | 3020 | 7.72 | CCCCCCCCCNc1nc(C)nc(C(Cl)(Cl)Cl)n1 | – | residual activity at 1 mg/kg (Nitrosomonas europaea [5]): 59%; inhibition in vivo at 5 mg/kg (Nitrosomonas sp. TK794 [6]): 55%
25 | 955 | 6.17 | CCCCN(CC)c1nc(C)nc(C(Cl)(Cl)Cl)n1 | 52.9 | –
26 | 2090 | 7.23 | CCCCN(CCCC)c1nc(C)nc(C(Cl)(Cl)Cl)n1 | – | residual activity at 1 mg/kg (Nitrosomonas europaea [5]): 56.2%; inhibition in vivo at 1 mg/kg (Nitrosomonas sp. TK794 [12]): 56.8%
